{"source": "patent US20090170759A1", "about": "“NEUROPROTECTIVE PEPTIDES” (priority 2007, published 2009)", "key": {"[1]": {"test_system": "rat cerebral cortical neurons", "assay": "Glutamate toxicity assay in primary cortical cultures", "format": "cell-based", "settings": "pretreatment 24 h prior to 100 μM glutamate", "from_the_text": "Dissociated hippocampal and cortical cell cultures were established from embryonic day 18 rat fetuses as previously described (Mattson et al., 1994). Briefly, fetuses were removed via cesarean section from pregnant moms (Sprague-Dawley) anesthetized with halothane according to the AVMA Panel on Euthanasia. Pups were decapitated and the brains were removed and placed in HEPES-buffered Hank's Balanced Salt solution (HBSS; Gibco). The hippocampi and cortices were dissected out and pooled according to tissue-type. Tissue was trypsinized for 15 min (1 mg/ml trypsin-HBSS; Worthington), rinsed with fresh HBSS, incubated in trypsin inhibitor (1 mg/ml; Sigma) for 5 min, rinsed again with fresh HBSS and then triturated in 1 ml fresh HBSS with a fire-polished glass pipette. Dissociated cells were seeded at 30,000 cells/well onto poly-D-lysine coated 96-well plates (Collaborative BioScience). […]\nCortical cells were seeded at 200,000 cells/dish onto polyethylenimine-coated 35 mm culture dishes. […] Cell survival was measured by counting viable cells in each field pre- and post-experimental treatment. […] Data were expressed as percent of control (vehicle; mean±SD)."}, "rat hippocampal cultures": {"test_system": "rat hippocampal cultures", "assay": "Neurite outgrowth assay (MAP2-FITC immunofluorescence), hippocampal cultures", "format": "cell-based", "from_the_text": "Dissociated hippocampal and cortical cell cultures were established from embryonic day 18 rat fetuses as previously described (Mattson et al., 1994). Briefly, fetuses were removed via cesarean section from pregnant moms (Sprague-Dawley) anesthetized with halothane according to the AVMA Panel on Euthanasia. Pups were decapitated and the brains were removed and placed in HEPES-buffered Hank's Balanced Salt solution (HBSS; Gibco). The hippocampi and cortices were dissected out and pooled according to tissue-type. Tissue was trypsinized for 15 min (1 mg/ml trypsin-HBSS; Worthington), rinsed with fresh HBSS, incubated in trypsin inhibitor (1 mg/ml; Sigma) for 5 min, rinsed again with fresh HBSS and then triturated in 1 ml fresh HBSS with a fire-polished glass pipette. Dissociated cells were seeded at 30,000 cells/well onto poly-D-lysine coated 96-well plates (Collaborative BioScience). Each well contained 100 μl of Eagle's Minimal Essential Media (MEM; Gibco) supplemented with 26 mM NaHCO3 (Sigma), 56 mM glucose (Sigma), 15 mM KCl (Sigma), 1 mM sodium pyruvate (Sigma), 1.1 mM L-glutamine (Sigma), 10% (v/v) heat-inactivated fetal bovine serum (Hyclone), and 0.001% gentamicin sulfate (Sigma) (pH 7.4). Cells were allowed to attach for 24 h in a humidified 37° C. 5% CO2 incubator before experimental treatment. The culture media was aspirated and exchanged with fresh media every three days.\nTwenty-four hours after plating, cultures were treated with vehicle (PBS+0.1% BSA), 100 ng of various growth factors (brain derived neurotrophic factor (BDNF; Promega), glial-derived neurotrophic factor (GDNF; Promega), nerve growth factor (NGF; Boehringer Mannheim), basic fibroblast growth factor (bFGF; Boehringer Mannheim), insulin-like growth factor-1 (IGF-1; Boehringer Mannheim), neurotrophin-3 (NT3; Calbiochem), neurotrophin-4 (NT4; Calbiochem), ciliary neurotrophic factor (CNTF; Calbiochem), epidermal growth factor (EGF; Calbiochem), vascular endothelial growth factor (VEGF; Calbiochem)), or rhEPO (prepared same as above; 10 fM-10 nM)). Each treatment condition was run in quadruplicate or octuplicate. On the third day in culture, the media was aspirated off and replaced with fresh media and test compound. At one week in culture, the cells were fixed with 10% phosphate-buffered formalin for 15 min, then rinsed with DPBS (Sigma) and placed in blocking serum for 30 min (horse serum; 1:50 dilution in DPBS; Vector Labs). Cultures were rinsed again with DPBS and then incubated in primary antibody for 2 hr (microtubule-associated protein-2 (MAP-2) is a selective marker for dendritic processes; anti-mouse monoclonal (Chemicon); 1:1000 dilution of MAP-2 in antibody diluent (Zymed)). Negative control wells were incubated in antibody diluent alone. Background signal was determined by blank wells (cell-free) incubated with or without antibody. Cultures were rinsed again with DPBS and then placed in fluorescein for 1 hr (FITC; anti-mouse IgG; rat adsorbed; 1:50 dilution in DPBS; Vector Labs). Cultures were rinsed a final time with DPBS and then the plates were read on a Cytofluor 4000 fluorescence plate reader. Neurite outgrowth was expressed as percent change from control (vehicle; mean fluorescence±SD).\nDissociated hippocampal and cortical cell cultures were established from embryonic day 18 rat fetuses as previously described (Mattson et al., 1994). Briefly, fetuses were removed via cesarean section from pregnant moms (Sprague-Dawley) anesthetized with halothane according to the AVMA Panel on Euthanasia. Pups were decapitated and the brains were removed and placed in HEPES-buffered Hank's Balanced Salt solution (HBSS; Gibco). The hippocampi and cortices were dissected out and pooled according to tissue-type. […]"}}, "note": "“Also recorded” adds a separate entry of the source."}
{"substance": "rhEPO: purified, recombinant human EPO (rhEPO), currently formulated and distributed under the trademarks of EPREX, ERYPO, or PROCRIT", "values": [{"measurement": "maximal increase of cell survival over parallel cultures treated with glutamate alone", "setting": "[1]", "result": "approximately 200%"}, {"measurement": "neuronal survival after glutamate (in words)", "setting": "[1]", "result": "significant increase in neuronal survival; also recorded: protects rat cerebral cortical neurons against glutamate toxicity"}, {"measurement": "neurite outgrowth response over control, hippocampal cultures", "setting": "rat hippocampal cultures; Example 3, one week in culture", "result": "12-44%"}, {"measurement": "neurite outgrowth in rat hippocampal cultures (in words)", "setting": "rat hippocampal cultures; figure legends", "result": "promotes neurite outgrowth"}, {"measurement": "neurite outgrowth promoting activity in hippocampus compared with growth factors", "setting": "rat hippocampal cultures; growth factors at 100 ng", "result": "superior to several growth factors including BDNF, NGF and VEGF"}]}
